{"source": "patent US6008046A", "about": "“Drug and pesticide screening” (priority 1993, dated 1999)", "key": {"[1]": {"molecular_target": "T1, mutant GABA receptor (Ala to Ser mutant Rdl) (Drosophila melanogaster, UniProt P25123, A301S/I283V)", "T1 construct": "expressed in transfected cells; host or cells: Xenopus oocytes injected with RNA derived from the Ala to Ser mutant of cDNA 14.1", "T1 sequence (P25123 other isoform, or with tags, fused parts or gaps I283V/A301S)": "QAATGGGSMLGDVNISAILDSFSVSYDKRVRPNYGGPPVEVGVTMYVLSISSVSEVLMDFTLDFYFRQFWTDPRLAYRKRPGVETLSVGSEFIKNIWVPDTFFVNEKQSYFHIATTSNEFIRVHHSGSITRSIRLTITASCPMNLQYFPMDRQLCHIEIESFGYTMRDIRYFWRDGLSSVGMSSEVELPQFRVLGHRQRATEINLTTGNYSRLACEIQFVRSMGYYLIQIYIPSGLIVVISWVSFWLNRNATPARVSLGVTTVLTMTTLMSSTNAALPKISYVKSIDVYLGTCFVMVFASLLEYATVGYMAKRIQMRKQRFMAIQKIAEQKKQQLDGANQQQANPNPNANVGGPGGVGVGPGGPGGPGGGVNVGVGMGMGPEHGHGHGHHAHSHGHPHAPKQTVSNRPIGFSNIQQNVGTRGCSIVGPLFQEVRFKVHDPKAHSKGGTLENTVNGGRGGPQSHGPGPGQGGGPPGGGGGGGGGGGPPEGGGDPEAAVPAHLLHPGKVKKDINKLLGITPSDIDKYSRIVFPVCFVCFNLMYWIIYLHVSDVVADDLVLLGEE", "assay": "Two-electrode voltage clamp of Xenopus oocytes expressing Ala to Ser mutant GABA receptor", "assay_type": "cell-based", "details": "for response of mutant channels to GABA and muscimol compared with wild-type channels: Ala to Ser mutant vs wild-type; for sensitivity of Ala>Ser mutant compared with wild-type: thirty oocytes with each type of RNA (FIGS. 10b-e); for Reduction in GABA response (mean (s.d.)): xenopus oocytes", "procedure": "(§1) The cloning of cDNA's from the GABAA locus allows for functional expression of mRNA derived from this and other subunit cDNA templates in various cell types.\n(§2) In the Xenopus oocyte expression system, oocytes removed from ovaries of adult Xenopus are arrested at the first meiotic prophase. Because each oocyte is fairly large and has a large nucleus, it is technically easy to inject foreign DNA into the oocyte nucleus. Typically, 20-40 nl is injected through a finely drawn glass capillary. The endogenous Xenopus RNA polymerases transcribe this injected exogenous DNA. Mertz and Gurdon, Proc. Natl. Acad. Sci. USA 74:1502 (1977). The exogenous DNA is assembled into chromatin, but there is no replication of injected duplex DNA in the oocyte. Gargilo and Worcel, J. Mol. Biol., 170:699 (1983); Ryoji and Worcel, Cell 37:21 (1984). Single-stranded DNA (e.g., DNA obtained by cloning in M13 vectors), is converted to duplex form within the oocyte nucleus. The Xenopus oocyte also efficiently translates mRNA injected into its cytoplasm.\n(§3) Various studies have shown that this Xenopus expression system is feasible for expression of foreign DNA. Kreig and Melton, EMBO J 4:3464 (1985); Masu et al., Nature 329:836 (1987); Wilson et al., Cell 47:589 (1986); see also, Old and Primrose, Principles of Gene Manipulation, 4th ed. (Blackwell Scientific Publications, Oxford, 1989)(pp. 296-302).\n(§4) In the system of the present invention, messenger RNA produced from cDNA template, (both messenger RNA and cDNA template are considered to be part of the present invention), is injected into Xenopus eggs which then express the protein. By patch clamp electrophysiology experiments, one can then determine whether the cell is expressing the protein (measured by electrical impulses) and whether this expression can be altered by the compound of interest.\n(§5) Currents were recorded in 96 mM NaCl, 2 mM Kcl, 1.8 mM MgCl2, and 5 mM Hepes. Recordings were made 1-5 days after injection. […] Dieldrin was dissolved in DMSO (dimethylsulfoxide), then diluted to a final concentration of 0.1% DMSO. The single base pair substitution of GCG (alanine) to TCG (serine) was introduced into the sensitive cDNA 14.1 by subcloning in a restriction fragment from the insensitive cDNA. The region containing the mutation was then amplified by PCR from total embryonic RNA from Rdl^R-MD flies and subsequently digested with EcoRV and Acc1. This restriction fragment was then cloned into the sensitive cDNA 14.1 cut with the same enzymes to yield the Ala to Ser mutant construct.\n(§6) In order to test the effect of the resistance-associated Ala to Ser mutation, this substitution was introduced into the sensitive cDNA (as discussed above). […] Pharmacological comparisons were made using thirty oocytes injected with each type of RNA."}, "[2]": {"molecular_target": "normal GABA receptor (wild-type Rdl, cDNA 14.1) (Drosophila melanogaster, UniProt P25123, I283V)", "sequence (P25123 other isoform, or with tags, fused parts or gaps I283V)": "as the sequence (P25123 other isoform, or with tags, fused parts or gaps I283V/A301S) above, with S257A counted along it", "assay": "cell-based", "details": "for Reduction in GABA response (mean (s.d.)): xenopus oocytes", "procedure": "as §1, §2, §3, §4, §5, §6"}, "[3]": {"test_system": "larval central nerve cord of Rdl^R-MD", "details": "dieldrin, 10 μM concentration; Bloomquist et al. 1991; cited from earlier work"}, "[4]": {"test_system": "D. melanogaster", "details": "30 μg dieldrin, ffrench-Constant et al. 1990, cited from earlier work"}, "[5]": {"test_system": "D. melanogaster", "assay": "Dieldrin contact bioassay, fly mortality in coated vials after 24 hours", "assay_type": "in vivo", "details": "for mortality at 0.03 mg: Drosophila melanogaster, 24 h, 30 μg dieldrin", "procedure": "More specifically, FIG. 2 depicts the crosses used to rescue cyclodiene insecticide susceptibility via P-element-mediated germline transformation. As depicted, embryos containing an endogenous source of transposase (Δ2,3) were injected with a cosmid carrying a susceptible copy of the gene and a copy of the mini-white eye color gene as a selectable marker. Successful G0 transformants with red eyes (w^+) were subsequently crossed into flies hemizygous for resistance and a deficiency uncovering the resistance gene Df(3L)29A6. These flies carrying the w^+ S insert (transferred DNA) are susceptible to a dose of 30 μg dieldrin, whereas their siblings without the insert are resistant to this dose.\nIn order to more precisely localize the gene within the 200 kb of DNA isolated from the 66F subregion, new chromosomal rearrangements were induced using γ irradiation and screened for those uncovering the resistance gene. Chromosomal rearrangements were generated by exposing male SS flies with multiply marked third chromosomes (rucuca strain) to 4,000 rads of radiation in a γ radiation (cesium) source, and then outcrossing these R/R (Rdl^R /Rdl^R) females. New rearrangements uncovering resistance were screened for by exposing their progeny at a dose of 30 μg dieldrin, at which only R/Df (Rdl^R /Df) flies will survive (all the expected RS progeny will die at this dose level except for any R/- flies wherein \"-\" is any new rearrangement uncovering the resistance gene), survivors were crossed to In(3LR)TM3/Sb and maintained as a balanced stock (Df/In(3LR)TM3).\nApproximately 50,000 flies were screened. For screening, 20 ml glass scintillation vials were coated internally with 30 μg of dieldrin in acetone and rolled until dry. Twenty to thirty flies per vial were added and mortality was recorded after 24 hours at 25° C..\nAs both of the cytologically visible rearrangements giving two new recombinant bands on a Southern with probes from cosmid 6 have only one breakpoint within 66F, this cluster of breakpoints which disrupts the gene must therefore mark its location. In order to determine whether cosmid 6 contained a functional copy of the gene for cyclodiene resistance, P-element germline transformation with this cosmid was carried out. Following successful isolation of a w^+ transformant, linkage to the insert to the second chromosome was established after crossing male G0 progeny to a stock bearing markers on the second and third chromosomes (FIG. 2). […]\nEntomol., 83:1733, (1990). […] These field-collected and isofemale strains were used in the initial identification of the resistance-associated mutation, but studies of linkage to other restriction-site markers in D. melanogaster were done with isochromsomal lines to ensure that only a single chromosome was being analyzed."}, "[6]": {"test_system": "mutant GABA receptor (Ala to Ser mutant Rdl)", "assay": "Two-electrode voltage clamp of Xenopus oocytes expressing Ala to Ser mutant GABA receptor", "assay_type": "cell-based, Drosophila melanogaster", "procedure": "as §1, §2, §3, §4, §5, §6"}, "[7]": {"test_system": "PTX binding sites on the GABA receptor", "details": "cyclodiene-resistant vs susceptible strains; Matsumura et al. 1987; cited from earlier work"}, "[8]": {"test_system": "cultured Rdl^R-MD neurons", "assay": "Whole cell patch clamp of cultured Rdl^R-MD neurons", "assay_type": "cell-based, Drosophila melanogaster", "details": "PTX"}, "[9]": {"test_system": "chloride ion channels", "details": "thiocyanate ions vs chloride; cited from earlier work"}, "[10]": {"details": "wild-type mRNA, voltage clamped at -60 mV"}, "[11]": {"details": "read-out: Reduction in GABA response (mean (s.d.))"}}, "note": "Where a name gives a salt, the structure may show the parent alone. Read-outs that look alike come from different tables or passages of the source."}
{"smiles": "NCCCC(=O)O", "note": "[GABA, γ-aminobutyric acid]", "values": [{"measurement": "response of mutant channels to GABA and muscimol compared with wild-type channels", "setting": "[1]", "result": "apparently identical to the wild-type channels"}, {"measurement": "recovery of response to GABA during washing", "setting": "[2]; after PTX or dieldrin, washed with saline 20 min, all experiments (wild-type and mutant)", "result": "at least 50%"}, {"measurement": "reversal potential of GABA-evoked currents", "setting": "[2]; wild-type mRNA", "result": "-20 to -25", "unit": "mv"}, {"measurement": "maximum current, lower end of range", "setting": "[2]; [10]", "result": 50, "unit": "nA"}, {"measurement": "maximum current, upper end of range", "setting": "[2]; [10]", "result": "> 5", "unit": "μA"}]}
{"smiles": "ClC1=C(Cl)[C@]2(Cl)[C@@H]3[C@@H]4C[C@@H]([C@H]5O[C@@H]45)[C@@H]3[C@@]1(Cl)C2(Cl)Cl", "note": "[dieldrin]", "values": [{"measurement": "sensitivity of larval central nerve cord of Rdl^R-MD", "setting": "[3]", "result": "Insensitivity"}, {"measurement": "survival of RR flies", "setting": "[4]; RR flies", "result": 85, "unit": "%"}, {"measurement": "kill of RS and SS genotypes", "setting": "[4]; RS and SS flies", "result": "kills all RS and SS genotypes"}, {"measurement": "mortality at 0.03 mg", "setting": "[5]; flies carrying the cosmid 6 insert (Rdl^R/Rdl^S), n=221", "result": 93, "unit": "%"}, {"measurement": "mortality at 0.03 mg", "setting": "[5]; siblings without the insert (Rdl^R/Df(3L)29A6), n=214", "result": 7, "unit": "%"}, {"measurement": "susceptibility to 30 μg dieldrin, in words", "setting": "[5]; flies carrying the w+ S insert", "result": "susceptible"}, {"measurement": "susceptibility to 30 μg dieldrin, in words", "setting": "[5]; siblings without the insert", "result": "resistant"}, {"measurement": "block of the GABA response, in words", "setting": "[1]; […] μM dieldrin, insensitive mutant cDNA (FIG. 10e)", "result": "little effect"}, {"measurement": "sensitivity of expressed chloride ion channels carrying the Ala to Ser mutation", "setting": "[1]; mutation of resistant D. melanogaster", "result": "insensitivity"}, {"measurement": "inhibition at 10 µM", "setting": "[1]; [11]", "result": 23, "unit": "%"}, {"measurement": "sensitivity of Ala>Ser mutant compared with wild-type", "setting": "[1]", "result": "consistently lower sensitivity"}, {"measurement": "Reduction in GABA response (mean (s.d.))", "setting": "[1]; 10 µM", "result": "12 (11) %"}, {"measurement": "loss of sensitivity conferred by the mutation", "setting": "[6]; dieldrin, from comparison of effects of lower doses", "result": "50-100 fold"}, {"measurement": "solubility", "setting": "[2]; dissolved in DMSO, diluted to final 0.1% DMSO, concentration above 10 μM not possible", "result": "limited solubility"}, {"measurement": "inhibition at 10 µM", "setting": "[2]; [11]", "result": 78, "unit": "%"}, {"measurement": "inhibition at 10 µM", "setting": "[2]; read-out: block of the GABA response, 10 μM dieldrin, wild-type \"sensitive\" cDNA (FIG. 10c)", "result": "> 75", "unit": "%"}, {"measurement": "Reduction in GABA response (mean (s.d.))", "setting": "[2]; 10 µM", "result": "80 (6) %"}]}
{"smiles": "C=C(C)[C@@H]1[C@H]2OC(=O)[C@@H]1[C@]1(O)C[C@H]3O[C@]34C(=O)O[C@H]2[C@]14C", "note": "[PTX, Picrotoxinin]", "values": [{"measurement": "affinity for PTX of resistant strains relative to susceptibles", "setting": "[7]", "result": "one tenth"}, {"measurement": "reduction in sensitivity", "setting": "[8]", "result": "approximately 100 fold"}, {"measurement": "block of the GABA response, in words", "setting": "[1]; 1 μM PTX, Ala to Ser mutant (FIG. 10d)", "result": "little effect"}, {"measurement": "inhibition at 1 µM", "setting": "[1]; [11]", "result": 8, "unit": "%"}, {"measurement": "inhibition at 10 µM", "setting": "[1]; [11]", "result": 61, "unit": "%"}, {"measurement": "inhibition at 50 µM", "setting": "[1]; [11]", "result": 75, "unit": "%"}, {"measurement": "inhibition at 1 µM", "setting": "[1]; read-out: Reduction in GABA response (mean (s.d.)), Mutant, 1 μM PTX, oocytes with GABA EC50 […] μM, n = 6", "result": 8, "unit": "%"}, {"measurement": "sensitivity of Ala>Ser mutant compared with wild-type", "setting": "[1]", "result": "consistently lower sensitivity"}, {"measurement": "Reduction in GABA response (mean (s.d.))", "setting": "[1]; 10 µM", "result": "48 (6) %"}, {"measurement": "Reduction in GABA response (mean (s.d.))", "setting": "[1]; 50 µM", "result": "56 (6) %"}, {"measurement": "reduction in sensitivity induced by the mutation", "setting": "[6]; PTX, mutant vs wild-type oocytes", "result": "approximately 100 fold"}, {"measurement": "inhibition at 1 µM", "setting": "[2]; [11]", "result": 73, "unit": "%"}, {"measurement": "inhibition at 10 µM", "setting": "[2]; [11]", "result": 96, "unit": "%"}, {"measurement": "inhibition at 50 µM", "setting": "[2]; [11]", "result": 96, "unit": "%"}, {"measurement": "inhibition at 1 µM", "setting": "[2]; read-out: block of the GABA response, 1 μM PTX, wild-type \"sensitive\" cDNA (FIG. 10b)", "result": "> 70", "unit": "%"}, {"measurement": "Reduction in GABA response (mean (s.d.))", "setting": "[2]; 1 µM", "result": "78 (12) %"}, {"measurement": "Reduction in GABA response (mean (s.d.))", "setting": "[2]; 10 µM", "result": "90 (13) %"}, {"measurement": "Reduction in GABA response (mean (s.d.))", "setting": "[2]; 50 µM", "result": "97 (5) %"}]}
{"smiles": "N#CS", "note": "[thiocyanate]", "values": [{"measurement": "permeation through chloride ion channels relative to chloride", "setting": "[9]", "result": "seven"}]}
{"smiles": "C[N+]1(C)CCc2cc3c(cc2[C@H]1[C@@H]1OC(=O)c2c1ccc1c2OCO1)OCO3", "note": "[bicuculline, (-)-bicuculline methiodide]", "values": [{"measurement": "block of GABA-evoked currents by bicuculline", "setting": "[2]; bicuculline 100 μM with 10 μM GABA (FIG. 10a)", "result": "not blocked"}]}
{"smiles": "NCc1cc(=O)[nH]o1", "note": "[muscimol, muscimol hydrobromide]", "values": [{"measurement": "response of mutant channels to GABA and muscimol compared with wild-type channels", "setting": "[1]", "result": "apparently identical to the wild-type channels"}]}
